Measured values: paper PMC7486443, “Generation of Phenothiazine with Potent Anti-TLK1 Activity for Prostate Cancer Therapy” (iScience, 2020)

What was measured:
Experiment in all cases: biochemical
Parameters in all cases: DiscoverX KINOMEscan scanMAX competition binding panel, single concentration, percent of control; remaining binding: dose or concentration left out as unconfirmed
Settings in all cases: KINOMEscan binding, percent of control; read-out: Table S4_SCANMAX REPORT - related to Fig. 1 / Percent Control
[1] = molecular target: CDK3 (Homo sapiens, UniProt Q00526)
[2] = molecular target: T1, ERK5 (Homo sapiens, UniProt Q13164)
T1 construct: gene MAPK7

[3] = molecular target: HIPK1 (Homo sapiens, UniProt Q86Z02)
[4] = molecular target: T2, VEGFR2 (Homo sapiens, UniProt P35968)
T2 construct: gene KDR

[5] = molecular target: PRKD3 (Homo sapiens, UniProt O94806)
[6] = molecular target: ERBB4 (Homo sapiens, UniProt Q15303)
[7] = molecular target: T3, CDK11 (Homo sapiens, UniProt Q9BWU1)
T3 construct: gene CDK19

[8] = molecular target: PIM2 (Homo sapiens, UniProt Q9P1W9)
[9] = molecular target: CDK8 (Homo sapiens, UniProt P49336)
[10] = molecular target: T4, ABL1(H396P)-nonphosphorylated (Homo sapiens, UniProt P00519, H396P)
T4 construct: nonphosphorylated

[11] = molecular target: PRKX (Homo sapiens, UniProt P51817)
[12] = molecular target: T5, CDC2L2 (Homo sapiens, UniProt Q9UQ88)
T5 construct: gene CDK11A

[13] = molecular target: EGFR(G719S) (Homo sapiens, UniProt P00533, G719S)
[14] = molecular target: PRKG2 (Homo sapiens, UniProt Q13237)
[15] = molecular target: TBK1 (Homo sapiens, UniProt Q9UHD2)
[16] = molecular target: RIPK2 (Homo sapiens, UniProt O43353)
[17] = molecular target: NEK7 (Homo sapiens, UniProt Q8TDX7)
[18] = molecular target: EGFR(L858R,T790M) (Homo sapiens, UniProt P00533, L858R/T790M)

T1 sequence (Q13164 whole entry): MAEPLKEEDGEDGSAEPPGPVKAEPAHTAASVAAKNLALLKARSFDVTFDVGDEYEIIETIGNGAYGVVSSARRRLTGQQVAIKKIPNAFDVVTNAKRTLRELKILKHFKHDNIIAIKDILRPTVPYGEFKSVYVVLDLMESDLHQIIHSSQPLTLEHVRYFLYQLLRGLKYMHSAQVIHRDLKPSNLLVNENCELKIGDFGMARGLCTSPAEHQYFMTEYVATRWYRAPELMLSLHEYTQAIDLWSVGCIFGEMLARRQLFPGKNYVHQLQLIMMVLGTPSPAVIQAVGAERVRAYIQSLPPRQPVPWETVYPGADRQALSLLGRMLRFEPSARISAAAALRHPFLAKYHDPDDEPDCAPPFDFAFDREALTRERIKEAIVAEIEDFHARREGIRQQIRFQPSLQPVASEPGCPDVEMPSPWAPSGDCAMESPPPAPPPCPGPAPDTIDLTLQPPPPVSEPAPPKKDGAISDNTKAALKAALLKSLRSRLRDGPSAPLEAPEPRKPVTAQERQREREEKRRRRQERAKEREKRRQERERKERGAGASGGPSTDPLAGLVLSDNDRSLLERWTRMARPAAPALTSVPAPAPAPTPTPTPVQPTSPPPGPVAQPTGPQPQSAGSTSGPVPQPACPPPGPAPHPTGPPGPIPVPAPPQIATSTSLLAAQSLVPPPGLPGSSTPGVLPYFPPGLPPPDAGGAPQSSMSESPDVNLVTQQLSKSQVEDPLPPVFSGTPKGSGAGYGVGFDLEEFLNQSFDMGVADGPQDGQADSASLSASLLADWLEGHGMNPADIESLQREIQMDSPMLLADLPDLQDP
Chain of ERBB4 (Q15303 whole entry): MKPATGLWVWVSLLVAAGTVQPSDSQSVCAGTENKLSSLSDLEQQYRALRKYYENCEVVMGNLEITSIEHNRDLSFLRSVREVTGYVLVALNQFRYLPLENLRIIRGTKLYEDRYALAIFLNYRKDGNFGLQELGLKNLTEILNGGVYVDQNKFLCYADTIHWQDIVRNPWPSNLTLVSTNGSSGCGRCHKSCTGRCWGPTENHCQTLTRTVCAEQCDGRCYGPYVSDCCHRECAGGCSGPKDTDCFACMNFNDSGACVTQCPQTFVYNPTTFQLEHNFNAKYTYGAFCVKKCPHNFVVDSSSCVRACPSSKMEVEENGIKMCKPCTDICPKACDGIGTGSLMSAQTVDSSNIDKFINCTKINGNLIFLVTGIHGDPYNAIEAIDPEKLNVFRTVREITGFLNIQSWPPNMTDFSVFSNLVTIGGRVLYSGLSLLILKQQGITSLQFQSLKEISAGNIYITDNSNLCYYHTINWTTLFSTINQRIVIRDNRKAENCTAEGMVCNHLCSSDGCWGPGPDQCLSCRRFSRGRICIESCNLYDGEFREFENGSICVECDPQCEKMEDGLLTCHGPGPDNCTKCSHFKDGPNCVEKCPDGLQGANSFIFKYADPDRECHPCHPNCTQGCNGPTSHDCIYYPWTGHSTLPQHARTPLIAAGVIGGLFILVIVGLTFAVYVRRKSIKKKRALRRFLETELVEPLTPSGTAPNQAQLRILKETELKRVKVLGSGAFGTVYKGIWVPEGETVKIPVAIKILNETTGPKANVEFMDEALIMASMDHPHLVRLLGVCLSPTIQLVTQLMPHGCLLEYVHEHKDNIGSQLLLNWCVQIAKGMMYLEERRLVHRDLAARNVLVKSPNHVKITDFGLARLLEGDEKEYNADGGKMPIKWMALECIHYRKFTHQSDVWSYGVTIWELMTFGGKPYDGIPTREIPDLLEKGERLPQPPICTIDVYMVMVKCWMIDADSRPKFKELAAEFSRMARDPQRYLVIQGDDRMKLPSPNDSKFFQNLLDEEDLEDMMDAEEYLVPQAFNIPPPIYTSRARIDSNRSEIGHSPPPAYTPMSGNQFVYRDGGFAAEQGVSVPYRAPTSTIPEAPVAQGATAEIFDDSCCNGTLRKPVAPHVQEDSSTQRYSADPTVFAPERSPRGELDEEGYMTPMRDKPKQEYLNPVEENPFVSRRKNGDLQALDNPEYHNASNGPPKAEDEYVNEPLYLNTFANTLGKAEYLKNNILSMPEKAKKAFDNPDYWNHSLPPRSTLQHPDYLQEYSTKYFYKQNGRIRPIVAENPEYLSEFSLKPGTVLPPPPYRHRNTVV
Chain of CDK8 (P49336 whole entry): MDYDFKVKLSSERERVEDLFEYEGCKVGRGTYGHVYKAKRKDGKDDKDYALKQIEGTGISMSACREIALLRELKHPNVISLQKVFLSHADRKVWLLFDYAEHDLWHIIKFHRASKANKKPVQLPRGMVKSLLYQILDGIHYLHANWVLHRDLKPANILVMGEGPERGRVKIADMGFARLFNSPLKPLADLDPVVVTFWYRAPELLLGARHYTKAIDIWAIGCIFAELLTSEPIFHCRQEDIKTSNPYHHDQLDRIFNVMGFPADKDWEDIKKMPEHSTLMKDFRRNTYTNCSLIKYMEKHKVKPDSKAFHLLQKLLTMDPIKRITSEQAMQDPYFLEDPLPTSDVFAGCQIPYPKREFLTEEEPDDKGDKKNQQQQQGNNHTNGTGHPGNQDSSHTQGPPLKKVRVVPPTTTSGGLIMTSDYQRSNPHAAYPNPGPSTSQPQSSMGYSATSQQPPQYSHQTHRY
Chain of NEK7 (Q8TDX7 whole entry): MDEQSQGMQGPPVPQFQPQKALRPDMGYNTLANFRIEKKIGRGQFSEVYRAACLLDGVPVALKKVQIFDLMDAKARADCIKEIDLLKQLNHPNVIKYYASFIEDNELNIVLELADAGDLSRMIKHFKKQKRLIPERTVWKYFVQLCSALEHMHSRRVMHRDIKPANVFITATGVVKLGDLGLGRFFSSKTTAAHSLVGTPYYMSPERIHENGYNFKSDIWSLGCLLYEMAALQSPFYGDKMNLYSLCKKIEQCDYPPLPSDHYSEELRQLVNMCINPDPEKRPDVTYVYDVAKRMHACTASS
Chain of TBK1 (Q9UHD2 whole entry): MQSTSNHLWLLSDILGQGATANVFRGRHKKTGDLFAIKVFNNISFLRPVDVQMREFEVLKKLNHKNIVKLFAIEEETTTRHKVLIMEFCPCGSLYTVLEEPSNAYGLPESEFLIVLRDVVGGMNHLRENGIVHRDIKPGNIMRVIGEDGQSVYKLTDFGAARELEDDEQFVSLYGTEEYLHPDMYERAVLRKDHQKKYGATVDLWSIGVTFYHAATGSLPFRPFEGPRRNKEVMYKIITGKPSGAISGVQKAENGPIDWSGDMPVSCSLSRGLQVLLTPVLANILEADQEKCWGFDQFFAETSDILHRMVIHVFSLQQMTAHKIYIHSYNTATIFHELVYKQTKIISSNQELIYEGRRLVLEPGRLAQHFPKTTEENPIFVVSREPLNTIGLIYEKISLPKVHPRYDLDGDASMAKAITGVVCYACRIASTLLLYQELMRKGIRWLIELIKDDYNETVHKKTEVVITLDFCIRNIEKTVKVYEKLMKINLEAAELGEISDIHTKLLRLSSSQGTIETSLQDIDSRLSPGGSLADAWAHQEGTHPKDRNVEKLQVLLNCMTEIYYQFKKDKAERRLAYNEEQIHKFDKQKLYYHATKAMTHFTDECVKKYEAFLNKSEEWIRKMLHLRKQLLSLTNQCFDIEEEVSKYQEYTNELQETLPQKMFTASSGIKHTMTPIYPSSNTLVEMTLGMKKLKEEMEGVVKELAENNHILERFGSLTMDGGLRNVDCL
Chain of EGFR(G719S) (P00533 whole entry G719S): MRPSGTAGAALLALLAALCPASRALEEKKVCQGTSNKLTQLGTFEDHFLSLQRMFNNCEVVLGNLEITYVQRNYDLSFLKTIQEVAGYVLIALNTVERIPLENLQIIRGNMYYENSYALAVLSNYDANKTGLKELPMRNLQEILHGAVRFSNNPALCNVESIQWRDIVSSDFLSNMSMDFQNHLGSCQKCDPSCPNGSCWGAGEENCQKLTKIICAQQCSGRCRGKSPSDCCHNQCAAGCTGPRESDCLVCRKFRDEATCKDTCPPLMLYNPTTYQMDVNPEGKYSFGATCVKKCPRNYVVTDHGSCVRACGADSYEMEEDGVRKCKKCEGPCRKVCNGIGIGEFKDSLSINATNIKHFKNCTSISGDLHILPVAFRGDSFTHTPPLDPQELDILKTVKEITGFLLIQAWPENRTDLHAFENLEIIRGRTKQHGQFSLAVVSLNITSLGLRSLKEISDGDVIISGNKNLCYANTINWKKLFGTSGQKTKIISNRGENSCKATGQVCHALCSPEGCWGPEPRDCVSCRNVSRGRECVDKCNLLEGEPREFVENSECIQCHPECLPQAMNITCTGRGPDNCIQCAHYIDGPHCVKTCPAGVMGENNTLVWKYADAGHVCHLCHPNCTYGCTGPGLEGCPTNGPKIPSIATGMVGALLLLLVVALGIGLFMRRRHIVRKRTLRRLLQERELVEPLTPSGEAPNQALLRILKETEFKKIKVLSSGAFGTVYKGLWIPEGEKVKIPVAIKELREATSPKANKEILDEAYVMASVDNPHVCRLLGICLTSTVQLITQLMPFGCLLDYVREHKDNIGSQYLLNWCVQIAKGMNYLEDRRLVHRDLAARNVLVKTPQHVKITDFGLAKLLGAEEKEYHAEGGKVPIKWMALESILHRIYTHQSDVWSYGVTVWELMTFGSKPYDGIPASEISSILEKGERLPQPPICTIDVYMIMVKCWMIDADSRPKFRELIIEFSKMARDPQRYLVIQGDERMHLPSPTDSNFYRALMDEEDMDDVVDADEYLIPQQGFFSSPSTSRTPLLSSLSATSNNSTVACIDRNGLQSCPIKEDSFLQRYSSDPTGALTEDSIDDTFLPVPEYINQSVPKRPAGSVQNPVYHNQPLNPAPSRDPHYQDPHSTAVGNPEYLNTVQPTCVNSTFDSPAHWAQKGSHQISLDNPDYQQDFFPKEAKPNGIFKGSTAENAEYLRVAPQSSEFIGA

`c1ccc2c(c1)Sc1ccccc1N2CCN1CCOCC1` [J54] gave a remaining binding [1] of 89%, a remaining binding [2] of 100% and a remaining binding [3] of 85%. It also gave a remaining binding [4] of 100%, a remaining binding [5] of 100% and a remaining binding [6] of 100%. For the same compound, the remaining binding [7] was 81%, the remaining binding [8] was 42% and the remaining binding [9] was 100%. It also gave a remaining binding [10] of 86%, a remaining binding [11] of 91% and a remaining binding [12] of 100%. For the same compound, the remaining binding [13] was 99%, the remaining binding [14] was 99% and the remaining binding [15] was 89%. The remaining binding [16] was 100%, the remaining binding [17] was 100% and the remaining binding [18] was 100%.
